Read-outs that look alike come from different tables or passages of the source. Numbered stars: 1 amine (or outer) side, 2 acyl side, 3 side chain; on linkers, the order of the positions; unused ones are H or OH. Square brackets hold non-standard residues; d marks the D form. Peptide text beside a SMILES is read from it. ξ: configuration not given here. X1 = CN(C)C1(CS[C@H](C(=O)[*:2])N(C)[*:1])CCC1; ξNMeBmt = C/C=C/C[C@@H](C)[C@@H](O)C(NC)C(=O)O; X2 = CC(C)[C@H](C(=O)[*:2])N(Cc1ccccc1)[*:1]; X3 = CCNC1(CS[C@H](C(=O)[*:2])N(C)[*:1])CC1; X4 = CNC1(CS[C@H](C(=O)[*:2])N(C)[*:1])CC1; NMeLeu(4-OH) = CN[C@@H](CC(C)(C)O)C(=O)O; NMeL = CN[C@@H](CC(C)C)C(=O)O; dNMeL = CN[C@H](CC(C)C)C(=O)O; dNMeV = CN[C@@H](C(=O)O)C(C)C; dAbu = CC[C@@H](N)C(=O)O

The test system of test [1] is IFN-α production in human peripheral blood mononuclear cells. The experiment in a line: IFN-α production in human PBMCs (ELISA). Format: cell-based. The note with it: 2 μM for 24 hours, individual wells. On the procedure:
Cryopreserved commercial or previously isolated PBMCs from HCV donors cryopreserved in RPMI1640)/Fetal Bovine/DMSO solution (50/40/10 v/v) were tested with compounds provided herein. […]
PBMC were cultured for 24 hours at 37° C. in RPMI cell culture medium in flat bottom 48 well-plates. Each well received 180 μL of cell suspension (2×10^6 cells/mL). […] At the end of the incubation, the plates are centrifuged at 200 times g for 5 minutes. The cell supernatants are collected and assayed by ELISA for cytokines IFN-α's (the detection reagent recognized 14 of the 15 known human IFN-α subtypes) and IFN-λ1 (IL-29). The cell pellet is washed twice with cold PBS and ATP content are determined by adding 100 μL per well of the Cell Titer Glo® (Promega, Madison, Wis.). Plates are then placed at −80° C. until protein analysis. For the protein analysis, plates are thawed, scraped and the protein content of the cell suspension determined using BCA Protein Assay Kit (23227, ThermoScientific, Rockford Ill.).

The subject of test [2] is HBV entry into cultured hepatocytes (HepaRG cells). Description: Inhibition of HBV entry into HepaRG cells. The test is classed as cell-based. The note with it: Hepatitis B virus, 288 h, read-out: IC50 HBV entry.
Test [3] relates to Dengue virus DENV1 strain. Description: Dengue virus infection and replication assay in HuH7 cells. The test is classed as cell-based. The note with it: read-out: IC50 Dengue virus production. The method, then: Compounds A, B, and F were tested for activity against Dengue virus in a cell-based assay of viral infection and replication. HuH7 cells were infected with the DENV1 strain (multiplicity of infection=0.1). After a 1 hour incubation to allow viral attachment and infection, compounds were added (at concentrations of 1, 3 and 9 μM, in triplicate). Incubation was continued for 5 days, and cells and media were then harvested for analysis. Viral replication was assessed by a real-time RT-PCR assay for virus present in the media, and cells were assayed for metabolic viability (MTT assay).

The subject of test [4] is IFN-λ1 (IL-29) production in human peripheral blood mononuclear cells. Description: IL-29 production in human PBMCs (ELISA). The test is classed as cell-based. The note with it: 2 μM for 24 hours; for pg/mL IL29 Av.: average; for pg/mL IL29: individual wells. For orientation: ELISA stands for enzyme-linked immunosorbent assay.
Test [5] concerns IFN-α production in human peripheral blood mononuclear cells. The experiment in a line: IFN-α production in human PBMCs (ELISA). The test is classed as cell-based. Conditions: 2 μM for 24 hours; for pg/mL IFNα Av.: average; for pg/mL IFNα: individual wells.
Test [6] concerns Influenza A H1N1 (A/CA/05/09). Description: Anti-influenza virus cytoprotection assay in MDCK cells. Format: cell-based. The note with it: in triplicate, read-out: IC50 against Influenza A H1N1.
A further test addresses Cyclophilin A (Homo sapiens, UniProt P62937). The experiment in a line: Cyclophilin binding competitive ELISA. Conditions: human recombinant cyclophilin.
In the next test the target is Cyclophilin B (Homo sapiens, UniProt P23284). Description: Cyclophilin binding competitive ELISA. Conditions: human recombinant cyclophilin. The text has this: Plates were washed as described above. […] Plates were washed as described above.
Test [7] has as its system HCV RNA replicon Genotype 1b. Description: HCV replicon assay, 1b replicon (LUC). The note with it: Hepatitis C virus, 72 h, read-out: mean EC50 Genotype 1b. (In general: In antiviral work, replicon cells carry a viral genome segment that copies itself.)
From the text: Compounds were examined in the human hepatoma cell a HCV RNA replicon containing a stable luciferase (LUC) reporter. The HCV RNA replicon ET contains the 5′ end of HCV (with the HCV Internal Ribosome Entry Site (IRES) and the first few amino acids of the HCV core protein) which drives the production of neomycin phosphotransferase (NeoR) fusion protein. A luciferase reported is incorporated into 1b replicon. The EMCV IRES element controls the translation of the HCV structural proteins NS3-NS5. The NS3 protein cleaves the HCV polyprotein to release the mature NS3, NS4A, NS4B, NS5A and NS5B proteins that are required for HCV replication. At the 3′ end of the replicon is the authentic 3′ NTR of HCV. The activity of the LUC reporter is directly proportional to HCV replication levels and positive-control antiviral compounds produce a reproducible antiviral response using the LUC endpoint.
The compounds were dissolved in DMSO at six half-log concentrations. HCV replicon cells were plated out into 96 well plates dedicated for the analysis of cell numbers (cytotoxicity) or antiviral activity and the next day the compounds were added to the appropriate wells. […] Compound EC50 and EC90 values were derived from HCV RNA levels assessed as HCV RNA replicon derived LUC activity. […] Compound IC50 and IC90 values were calculated using a colorimetric assay as an indication of cell numbers and cytotoxicity. […]
The mark [8] stands for this setting: donor CT2 (test 3) (HCV, cryopreserved PBMCs).
Where [9] appears, read: HepaRG cells, HBs level by ELISA 12 days post-infection.
[10] abbreviates: donor Healthy 2, background subtracted.

Sequence of Cyclophilin A (P62937 whole entry): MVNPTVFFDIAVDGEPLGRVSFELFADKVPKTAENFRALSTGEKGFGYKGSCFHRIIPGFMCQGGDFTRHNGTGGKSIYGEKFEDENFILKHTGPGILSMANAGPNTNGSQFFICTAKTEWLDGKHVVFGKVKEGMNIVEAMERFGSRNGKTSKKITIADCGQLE
Sequence of Cyclophilin B (P23284 34-216): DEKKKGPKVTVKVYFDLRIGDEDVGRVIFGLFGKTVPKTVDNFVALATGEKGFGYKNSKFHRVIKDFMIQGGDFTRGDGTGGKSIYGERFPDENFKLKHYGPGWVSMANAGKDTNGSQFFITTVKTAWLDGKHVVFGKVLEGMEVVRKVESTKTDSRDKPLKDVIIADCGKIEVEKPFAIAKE

Regarding `CC=CC[C@@H](C)[C@@H](O)C1C(=O)NC(CC)C(=O)N(C)C(SCC2(N(C)C)CC2)C(=O)N(C)[C@@H](CC(C)(C)O)C(=O)NC(C(C)C)C(=O)N(C)C(CC(C)C)C(=O)NC(C)C(=O)NC(C)C(=O)N(C)C(CC(C)C)C(=O)N(C)C(CC(C)C)C(=O)N(C)C(C(C)C)C(=O)N1C` (stereo in doubt) [Compound A], the “pg/mL IFNα” value in test [1] (donor CT2 (HCV), first test) is given as 4 pg/mL; in test [1] (setting [8]) it was 7 pg/mL; in [5] (donor Healthy 1), “<LOQ”; in test [5] (donor Healthy 2), “<LOQ”; in [5] (donor Healthy 3), “<LOQ”. Further, the half-inhibitory concentration (IC50) in test [2] (setting [9]) was 1600 nM; in [3] (DENV1, Huh-7, 120 h), more than 9000 nM. Besides, the “pg/mL IL29 Av.” value in test [4] (donor Healthy 1) and in test [4] (donor Healthy 3) was “<LOQ” each time. Also, the “pg/mL IL29” value in test [4] (donor Healthy 1) and in test [4] (donor Healthy 3) was “<LOQ” in each case. Also, the “pg/mL IFNα Av.” value in test [5] (donor Healthy 1), in test [5] (donor Healthy 2) and in [5] (donor Healthy 3) was “<LOQ” each time.

Consider `CC=CC[C@@H](C)[C@@H](O)C1C(=O)NC(CC)C(=O)N(C)C(SCC2(N(C)C(C)C)CC2)C(=O)N(C)[C@@H](CC(C)(C)O)C(=O)NC(C(C)C)C(=O)N(C)C(CC(C)C)C(=O)NC(C)C(=O)NC(C)C(=O)N(C)C(CC(C)C)C(=O)N(C)C(CC(C)C)C(=O)N(C)C(C(C)C)C(=O)N1C` (stereo in doubt) [Compound B], for which the “pg/mL IFNα” value in [1] (setting [8]) is recorded as 8 pg/mL; in test [5] (donor Healthy 1), “<LOQ”; in test [5] (donor Healthy 2) it was “<LOQ”; in test [5] (donor Healthy 3), “<LOQ”. In addition, the IC50 in [2] (setting [9]) is less than 1000 nM; in test [3] (Huh-7, 120 h, HuH7 cells, DENV1, 5 days, real-time RT-PCR of media) it was 1000 nM. Moreover, the “pg/mL IL29” value in test [4] (donor Healthy 1) is 20 pg/mL and <LOQ; in [4] (setting [10]), “<LOQ”; in test [4] (donor Healthy 3) it was “<LOQ”. Further, the “pg/mL IL29 Av.” value in test [4] (setting [10]) and in test [4] (donor Healthy 3) was “<LOQ” each time. For the same molecule, the “pg/mL IFNα Av.” value in [5] (donor Healthy 1), in [5] (donor Healthy 2) and in test [5] (donor Healthy 3) was “<LOQ” each time.

Take `C/C=C/C[C@@H](C)[C@@H](O)C1C(=O)N[C@H](CC)C(=O)N(C)[C@H](SCC2(N(C)C)CCC2)C(=O)N(C)[C@@H](CC(C)C)C(=O)N(Cc2ccccc2)[C@H](C(C)C)C(=O)N(C)[C@H](CC(C)C)C(=O)N[C@H](C)C(=O)N[C@@H](C)C(=O)N(C)[C@H](CC(C)C)C(=O)N(C)[C@H](CC(C)C)C(=O)N(C)[C@H](C(C)C)C(=O)N1C` (stereo partly shown) [Compound F] (cyclo(A[dNMeL][dNMeL][dNMeV][ξNMeBmt][dAbu][X1][NMeL][X2][dNMeL][dA])): the IC50 is 5400 nM in test [6]; less than 1000 nM in [2] (HepaRG); 1400 nM in test [3] (DENV1, Huh-7, 120 h).

With `C/C=C/C[C@@H](C)[C@@H](O)C1C(=O)N[C@H](CC)C(=O)N(C)[C@H](SCC2(NC)CC2)C(=O)N(C)[C@@H](CC(C)(C)O)C(=O)N[C@H](C(C)C)C(=O)N(C)[C@H](CC(C)C)C(=O)N[C@H](C)C(=O)N[C@@H](C)C(=O)N(C)[C@H](CC(C)C)C(=O)N(C)[C@H](CC(C)C)C(=O)N(C)[C@H](C(C)C)C(=O)N1C` (stereo partly shown) [Compound G] (cyclo(A[dNMeL][dNMeL][dNMeV][ξNMeBmt][dAbu][X4][NMeLeu(4-OH)][dV][dNMeL][dA])), the IC50 on Cyclophilin A came to 29 nM; on Cyclophilin B it was 50 nM. Also, the half-maximal effective concentration (EC50) in [7] came out at 60 nM.

Consider `C/C=C/C[C@@H](C)[C@@H](O)C1C(=O)N[C@H](CC)C(=O)N(C)[C@H](SCC2(NCC)CC2)C(=O)N(C)[C@@H](CC(C)(C)O)C(=O)N[C@H](C(C)C)C(=O)N(C)[C@H](CC(C)C)C(=O)N[C@H](C)C(=O)N[C@@H](C)C(=O)N(C)[C@H](CC(C)C)C(=O)N(C)[C@H](CC(C)C)C(=O)N(C)[C@H](C(C)C)C(=O)N1C` (stereo partly shown) [Compound H] (cyclo(A[dNMeL][dNMeL][dNMeV][ξNMeBmt][dAbu][X3][NMeLeu(4-OH)][dV][dNMeL][dA])), for which the results for the IC50 on Cyclophilin A and at Cyclophilin B were 14 nM and 16 nM, respectively. Also, the half-maximal effective concentration (EC50) in [7] was determined as 40 nM.

As usually defined, the IC50 is the concentration needed to halve the response being measured. Broadly, the EC50 is the midpoint of the concentration-response curve.

Source of the values: patent US20140213508A1, “ANTIVIRAL MACROCYCLES” (priority 2012, published 2014).
